Data published in ChEMBL document CHEMBL4020732, “Synthesis, structural characterization and biological activity of novel Knoevenagel condensates on DLD-1 human colon carcinoma” (Bioorg Med Chem Lett, 2017).
The source made the active and inactive calls. The calls are words filed in the database; no cut-off is given here.

Experiments:
[1] = Glutathione reactivity assessed as rate constant for total GSH loss by UV-vis spectrophotometric method
[2] = Antioxidant activity assessed as ABTS radical scavenging activity at 100 uM after 5 mins by spectrophotometric method; format: functional
[3] = target: Superoxide dismutase 1/2 (Homo sapiens) (UniProt P00441+P04179); assay: Inhibition of SOD1/SOD2 in human DLD1 cells at 100 uM using xanthine as substrate pretreated for 24 hrs followed by substrate addition measured after 5 mins by NBT dye based spectrophotometric method; format: cell-based
DLD-1 [4] = assay: Antiproliferative activity against human DLD1 cells at 100 uM after 4 to 48 hrs by Alamar blue assay; format: functional, cell-based
[5] = Antioxidant activity assessed as ABTS radical scavenging activity after 5 mins by spectrophotometric method; format: functional; parameters: unit not given here
[6] = Antioxidant activity of the compound assessed as DPPH radical scavenging activity at 1 mM after 5 mins by spectrophotometric method; format: functional
DLD-1 [7] = assay: Antioxidant activity in human DLD1 cells assessed as ratio of reduced glutathione to oxidized glutathione by ortho-phthalaldehyde probe based fluorescence spectrometric method (reference value: 3.19 +/- 0.2); format: functional
DLD-1 [8] = assay: Down regulation of MRP1 expression in human DLD1 cells at 100 uM after 24 hrs by fluorescence assay; format: functional, cell-based
DLD-1 [9] = assay: Cytotoxicity against human DLD1 cells by MTT assay; format: functional, cell-based
DLD-1 [10] = assay: Antioxidant activity in human DLD1 cells assessed as glutathione reactivity by measuring GSH level per mg protein by ortho-phthalaldehyde probe based fluorescence spectrometric method (reference value: 2.19 +/- 0.18 nmol); format: functional
DLD-1 [11] = assay: Antioxidant activity in human DLD1 cells assessed as glutathione reactivity by measuring GSSG level per mg protein by ortho-phthalaldehyde probe based fluorescence spectrometric method (reference value: 0.69 nmol); format: functional
[12] = Antioxidant activity of the compound assessed as DPPH radical scavenging activity after 5 mins by spectrophotometric method; format: functional; parameters: unit not given here
[13] = target: T1, Extracellular superoxide dismutase [Cu-Zn] (Homo sapiens) (UniProt P08294); assay: Inhibition of SOD3 in human DLD1 cells at 100 uM using xanthine as substrate pretreated for 24 hrs followed by substrate addition after 5 mins by NBT dye based spectrophotometric method; format: cell-based
T1 sequence (whole entry): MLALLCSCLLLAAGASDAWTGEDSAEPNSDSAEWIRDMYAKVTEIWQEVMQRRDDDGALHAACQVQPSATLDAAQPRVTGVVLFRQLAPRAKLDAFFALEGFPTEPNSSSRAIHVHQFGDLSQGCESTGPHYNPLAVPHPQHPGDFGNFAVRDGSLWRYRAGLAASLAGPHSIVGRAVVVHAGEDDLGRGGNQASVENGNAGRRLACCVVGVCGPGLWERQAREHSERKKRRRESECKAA

[14] = target: T2, Superoxide dismutase [Mn], mitochondrial (Homo sapiens) (UniProt P04179); assay: Inhibition of mitochondrial SOD2 in human DLD1 cells at 100 uM using xanthine as substrate pretreated for 24 hrs followed by substrate addition after 5 mins by NBT dye based spectrophotometric method; format: cell-based
T2 sequence (whole entry): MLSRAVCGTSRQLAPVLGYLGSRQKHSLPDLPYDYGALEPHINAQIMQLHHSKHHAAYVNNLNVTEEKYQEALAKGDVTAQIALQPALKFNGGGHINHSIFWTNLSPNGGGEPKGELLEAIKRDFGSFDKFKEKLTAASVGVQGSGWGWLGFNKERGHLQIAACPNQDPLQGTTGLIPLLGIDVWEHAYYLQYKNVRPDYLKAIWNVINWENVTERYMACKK

Superoxide dismutase 1/2 (Homo sapiens), sequence (P00441 whole entry, looked up, one chain of several): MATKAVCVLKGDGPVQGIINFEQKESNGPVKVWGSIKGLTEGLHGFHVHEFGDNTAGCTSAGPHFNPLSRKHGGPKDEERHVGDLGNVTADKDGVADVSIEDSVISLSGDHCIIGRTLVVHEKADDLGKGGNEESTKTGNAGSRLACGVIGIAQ

Compound	K [1] [M⁻¹ s⁻¹]	inhibition [2] [%]	inhibition [3]	Activity (DLD-1 [4])	1/IC50 [5]	IC50 [5] [µM]	inhibition [6] [%]	Ratio (DLD-1 [7])	Activity (DLD-1 [8])	IC50 (DLD-1 [9]) [µM]	Activity (DLD-1 [10]) [nmol]	Activity (DLD-1 [11]) [nmol]	1/IC50 [12]	IC50 [12] [µM]	Activity [1]	inhibition [13]	inhibition [14]
C/C=C(/C)C(C)=O	0.013																
COc1cc(/C=C/C(=O)C(=Cc2ccc(O)cc2)C(=O)/C=C/c2ccc(O)c(OC)c2)ccc1O		89.2	Active	Active	0.158	6.32	73.8	3.99	Active	4.08	4.8	1.2	0.021	48.7	Active		
COc1cc(/C=C/C(=O)C(=Cc2ccccc2)C(=O)/C=C/c2ccc(O)c(OC)c2)ccc1O		75.1	inactive	Active	0.116	8.58	58.6	3.19	Active	5.45	4.47	1.4	0.012	84.4	Active	inactive	
CCOc1cc(/C=C/C(=O)CC(=O)/C=C/c2ccc(O)c(OCC)c2)ccc1O [ETHYL CURCUMIN]		96.1			0.156	6.4	93.4						0.041	24.5			
COc1cc(/C=C/C(=O)CC(=O)/C=C/c2ccc(O)c(OC)c2)ccc1O [CURCUMIN]		95			0.177	5.66	91.7						0.038	26.5			
C#CC(=O)OCC	1.75																
CCOc1cc(/C=C/C(=O)C(=Cc2ccccc2)C(=O)/C=C/c2ccc(O)c(OCC)c2)ccc1O		60.5	Active	Active	0.049	20.4	54.7	6.89	Active	5.06	3.27	0.48	0.011	91.4	Active		Active
CCOc1ccc(C=C(C(=O)/C=C/c2ccc(O)c(OC)c2)C(=O)/C=C/c2ccc(O)c(OC)c2)cc1OCC		74.9	inactive	Active	0.1	10	61.9	2.28	Active	4.12	4.27	1.88	0.014	73	Active	inactive	Active
CCOc1cc(C=C(C(=O)/C=C/c2ccc(O)c(OCC)c2)C(=O)/C=C/c2ccc(O)c(OCC)c2)ccc1O		88.5	inactive	Active	0.195	5.14	50.6	3.8		1.36	3.2	0.84	0.01	96.7	Active	inactive	
